Test results taken from ChEMBL document CHEMBL4118187, “In vitro activity of salicylamide derivatives against vancomycin-resistant enterococci” (Bioorg Med Chem Lett, 2018).
≈ marks a conversion by molar mass, not a printed value.

How the values were obtained:
Enterococcus faecalis [1] = test: Antibacterial activity against vancomycin-susceptible Enterococcus faecalis ATCC 29212 after 24 hrs; format: functional; settings: ATCC 29212, 24 h
Enterococcus faecalis [2] = test: Antibacterial activity against vancomycin-resistant Enterococcus faecalis 368 after 24 hrs; format: functional; settings: Enterococcus faecalis, 368, 24 h
Enterococcus faecalis [3] = test: Antibacterial activity against vancomycin-resistant Enterococcus faecalis 342B after 24 hrs; format: functional
Enterococcus faecalis [4] = test: Antibacterial activity against vancomycin-resistant Enterococcus faecalis 725B after 24 hrs; format: functional
[5] = Cytotoxicity against human THP1 cells after 24 hrs by LDH release assay; format: cell-based; settings: THP-1 cells, read-out: LD50
Enterococcus faecalis [6] = test: Antibacterial activity against vancomycin-resistant Enterococcus faecalis 342B assessed as compound concentration causing additive effect after 18 hrs in presence of vancomycin by checkerboard assay; format: functional
Enterococcus faecalis [7] = test: Antibacterial activity against vancomycin-resistant Enterococcus faecalis 368 assessed as vancomycin concentration causing synergistic effect after 18 hrs by checkerboard assay; format: functional
Enterococcus faecalis [8] = test: Antibacterial activity against vancomycin-resistant Enterococcus faecalis 725B assessed as ciprofloxacin concentration causing additive effect after 18 hrs by checkerboard assay; format: functional
Enterococcus faecalis [9] = test: Antibacterial activity against vancomycin-resistant Enterococcus faecalis 368 assessed as vancomycin concentration causing additive effect after 18 hrs after 18 hrs by checkerboard assay; format: functional
Enterococcus faecalis [10] = test: Antibacterial activity against vancomycin-resistant Enterococcus faecalis 725B assessed as compound concentration causing additive effect after 18 hrs in presence of ciprofloxacin by checkerboard assay; format: functional
Enterococcus faecalis [11] = test: Antibacterial activity against vancomycin-resistant Enterococcus faecalis 368 assessed as tetracycline concentration causing additive effect after 18 hrs after 18 hrs by checkerboard assay; format: functional
Enterococcus faecalis [12] = test: Antibacterial activity against vancomycin-resistant Enterococcus faecalis 342B in presence of tetracycline after 18 hrs by checkerboard assay; format: functional
Enterococcus faecalis [13] = test: Antibacterial activity against vancomycin-resistant Enterococcus faecalis 725B in presence of ciprofloxacin after 18 hrs by checkerboard assay; format: functional
Enterococcus faecalis [14] = test: Antibacterial activity against vancomycin-resistant Enterococcus faecalis 342B in presence of vancomycin after 18 hrs by checkerboard assay; format: functional
Enterococcus faecalis [15] = test: Antibacterial activity against vancomycin-resistant Enterococcus faecalis 368 assessed as compound concentration causing synergistic effect after 18 hrs in presence of vancomycin by checkerboard assay; format: functional
Enterococcus faecalis [16] = test: Antibacterial activity against vancomycin-resistant Enterococcus faecalis 725B in presence of tetracycline after 18 hrs by checkerboard assay; format: functional
Enterococcus faecalis [17] = test: Antibacterial activity against vancomycin-resistant Enterococcus faecalis 725B in presence of vancomycin after 18 hrs by checkerboard assay; format: functional
Enterococcus faecalis [18] = test: Antibacterial activity against vancomycin-resistant Enterococcus faecalis 368 in presence of vancomycin after 18 hrs by checkerboard assay; format: functional
Enterococcus faecalis [19] = test: Antibacterial activity against vancomycin-resistant Enterococcus faecalis 368 in presence of tetracycline after 18 hrs by checkerboard assay; format: functional
Enterococcus faecalis [20] = test: Antibacterial activity against vancomycin-resistant Enterococcus faecalis 368 assessed as compound concentration causing additive effect after 18 hrs in presence of tetracycline after 18 hrs by checkerboard assay; format: functional
Enterococcus faecalis [21] = test: Antibacterial activity against vancomycin-resistant Enterococcus faecalis 342B assessed as vancomycin concentration causing additive effect after 18 hrs by checkerboard assay; format: functional
Enterococcus faecalis [22] = test: Antibacterial activity against vancomycin-resistant Enterococcus faecalis 368 assessed as compound concentration causing additive effect after 18 hrs in presence of vancomycin after 18 hrs by checkerboard assay; format: functional
[23] = Selectivity index, ratio of LD50 for human THP1 cells to MIC for vancomycin-resistant Enterococcus faecalis 342B; format: toxicity; settings: THP-1 cells, read-out: Selectivity Index

Compound | MBC (Enterococcus faecalis [1]) [µM] | MIC (Enterococcus faecalis [1]) [µM] | MBC (Enterococcus faecalis [2]) [µM] | MIC (Enterococcus faecalis [2]) [µM] | MBC (Enterococcus faecalis [3]) [µM] | MIC (Enterococcus faecalis [3]) [µM] | MBC (Enterococcus faecalis [4]) [µM] | MIC (Enterococcus faecalis [4]) [µM] | further results
CC(C)[C@H](NC(=O)OCc1ccccc1)C(=O)Oc1cc(Cl)ccc1C(=O)Nc1ccc(Cl)c(Cl)c1 | > 465 | > 465 | > 465 | > 465 | > 465 | > 465 | > 465 | > 465 | –
COc1ccc(NC(=O)c2cc(Cl)ccc2OC(=O)[C@@H](NC(=O)OCc2ccccc2)C(C)C)cc1 | > 499 | > 499 | > 499 | > 499 | > 499 | > 499 | > 499 | > 499 | –
Cc1ccc(NC(=O)[C@@H](NC(=O)c2cc(Cl)ccc2O)C(C)C)cc1 | > 709 | > 709 | > 709 | > 709 | > 709 | > 709 | > 709 | > 709 | –
O=C(Nc1ccccc1)c1cc(Cl)ccc1O | 1.01 (≈ 0.25 µg/mL) | 0.5 (≈ 0.124 µg/mL) | 1030 (≈ 256 µg/mL) | 129 (≈ 32 µg/mL) | > 1030 | 64.6 (≈ 16 µg/mL) | 516 (≈ 128 µg/mL) | 129 (≈ 32 µg/mL) | CC50 at 24 h [5]: > 40 µM
O=C(Nc1ccc(C(F)(F)F)cc1)c1cc(Cl)ccc1O | 6.34 (≈ 2 µg/mL) | 0.199 (≈ 0.0628 µg/mL) | > 810 | 3.16 (≈ 0.998 µg/mL) | 25.3 (≈ 8 µg/mL) | 0.396 (≈ 0.125 µg/mL) | 25.3 (≈ 8 µg/mL) | 0.792 (≈ 0.25 µg/mL) | Activity (Enterococcus faecalis [6]): 0.5 µg/mL; Activity (Enterococcus faecalis [7]): 128 µg/mL; Activity (Enterococcus faecalis [8]): 32 µg/mL; Activity (Enterococcus faecalis [9]): 32 µg/mL; Activity (Enterococcus faecalis [10]): 0.125 µg/mL; Activity (Enterococcus faecalis [11]): 8 µg/mL; FIC (Enterococcus faecalis [12]): 1.008 - 1.5; FIC (Enterococcus faecalis [13]): 0.532 - 1.125; FIC (Enterococcus faecalis [14]): 0.75 - 1.25; Activity (Enterococcus faecalis [15]): 0.125 µg/mL; FIC (Enterococcus faecalis [16]): 1.032 - 1.5; FIC (Enterococcus faecalis [17]): 1 - 1.25; FIC (Enterococcus faecalis [18]): 0.375 - 1.064; FIC (Enterococcus faecalis [19]): 0.625 - 1.25; Activity (Enterococcus faecalis [20]): 0.25 µg/mL; Activity (Enterococcus faecalis [21]): 256 µg/mL; Activity (Enterococcus faecalis [22]): 0.25 µg/mL
CC(C)[C@H](NC(=O)c1cc(Cl)ccc1O)C(=O)Nc1ccc(C(F)(F)F)cc1 | 19.3 (≈ 8 µg/mL) | 19.3 (≈ 8 µg/mL) | > 617 | > 617 | > 617 | > 617 | > 617 | > 617 | –
CC(C)[C@H](NC(=O)c1ccc(Cl)cc1O)C(=O)Nc1ccc(Br)cc1 | > 601 | > 601 | > 601 | > 601 | > 601 | > 601 | > 601 | > 601 | –
CC(C)[C@H](NC(=O)OCc1ccccc1)C(=O)Oc1ccc(Cl)cc1C(=O)Nc1ccc([N+](=O)[O-])cc1 | > 486 | > 486 | > 486 | > 486 | > 486 | > 486 | > 486 | > 486 | –
CN[C@H](CC(C)C)C(=O)N[C@H]1C(=O)N[C@@H](CC(N)=O)C(=O)N[C@H]2C(=O)N[C@H]3C(=O)N[C@H](C(=O)N[C@H](C(=O)O)c4cc(O)cc(O)c4-c4cc3ccc4O)[C@H](O)c3ccc(c(Cl)c3)Oc3cc2cc(c3O[C@@H]2O[C@H](CO)[C@@H](O)[C@H](O)[C@H]2O[C@H]2C[C@](C)(N)[C@H](O)[C@H](C)O2)Oc2ccc(cc2Cl)[C@H]1O [VANCOMYCIN] | – | – | – | 353 (≈ 512 µg/mL) | – | 353 (≈ 512 µg/mL) | – | 706 (≈ 1020 µg/mL) | –
CC1(C)S[C@@H]2[C@H](NC(=O)[C@H](N)c3ccccc3)C(=O)N2[C@H]1C(=O)O [AMPICILLIN] | – | – | – | – | – | – | 5.72 (≈ 2 µg/mL) | 5.72 (≈ 2 µg/mL) | –
O=C(Nc1ccc(Cl)c(Cl)c1)c1ccc(Cl)cc1O | 1.58 (≈ 0.5 µg/mL) | 0.395 (≈ 0.125 µg/mL) | 202 (≈ 63.9 µg/mL) | 0.79 (≈ 0.25 µg/mL) | 25.3 (≈ 8 µg/mL) | 0.199 (≈ 0.063 µg/mL) | 25.3 (≈ 8 µg/mL) | 0.199 (≈ 0.063 µg/mL) | Activity (Enterococcus faecalis [6]): 0.032 µg/mL; Activity (Enterococcus faecalis [8]): 32 µg/mL; Activity (Enterococcus faecalis [9]): 256 µg/mL; Activity (Enterococcus faecalis [10]): 0.032 µg/mL; FIC (Enterococcus faecalis [12]): 1.016 - 1.508; FIC (Enterococcus faecalis [13]): 0.756 - 1.25; FIC (Enterococcus faecalis [14]): 0.629 - 1.128; CC50 at 24 h [5]: 25.6 µM; FIC (Enterococcus faecalis [16]): 1.016 - 1.504; FIC (Enterococcus faecalis [17]): 1.031 - 2.234; FIC (Enterococcus faecalis [18]): 1 - 1.25; selectivity ratio [23]: 128; FIC (Enterococcus faecalis [19]): 1.016 - 1.504; Activity (Enterococcus faecalis [21]): 256 µg/mL; Activity (Enterococcus faecalis [22]): 0.25 µg/mL
CN(C)[C@@H]1C(O)=C(C(N)=O)C(=O)[C@@]2(O)C(O)=C3C(=O)c4c(O)cccc4[C@@](C)(O)[C@H]3C[C@@H]12 [TETRACYCLINE] | – | – | – | 144 (≈ 64 µg/mL) | – | 144 (≈ 64 µg/mL) | – | 144 (≈ 64 µg/mL) | –
O=C(Nc1ccc(Cl)cc1)c1cc([N+](=O)[O-])ccc1O | > 874 | > 874 | > 874 | > 874 | > 874 | > 874 | > 874 | > 874 | CC50 at 24 h [5]: > 40 µM
CC(C)[C@H](NC(=O)OCc1ccccc1)C(=O)Oc1ccc([N+](=O)[O-])cc1C(=O)Nc1ccc(Cl)cc1 | > 466 | > 466 | > 466 | > 466 | > 466 | > 466 | > 466 | > 466 | –
CC(C)[C@H](NC(=O)OCc1ccccc1)C(=O)Oc1ccc(Cl)cc1C(=O)Nc1ccc(C(F)(F)F)cc1 | > 466 | > 466 | > 466 | > 466 | > 466 | > 466 | > 466 | > 466 | –
